{"source": "patent US8124780B2", "about": "“Benzimidazole compound” (priority 2005, dated 2012)", "system": "gastric acid secretion", "assay": "animal or person", "format": "in vivo, dog", "conditions": "for inhibition in vivo at 0.4 mg/kg / inhibition in vivo at 0.8 mg/kg / inhibition in vivo at 0.2 mg/kg / inhibition in vivo at 1.6 mg/kg / inhibition in vivo at 0.1 mg/kg: Canis lupus familiaris; for inhibition in vivo at 0.1 mg/kg: dose 0.1 mg/kg i.d.", "key": {"[1]": {"conditions": "iv, 24 h, read-out: Persistency of inhibitory effect against gastric acid secretion (%)"}, "[2]": {"conditions": "iv, read-out: Inhibitory effect against gastric acid secretion (%)"}, "[3]": {"conditions": "dose 0.4 mg/kg i.d., first day, 1 h 40 min to 2 h after administration, histamine i.v., 0.4 mg/kg"}, "[4]": {"conditions": "dose 0.4 mg/kg i.d., second day, 24 hours after administration, histamine i.v., 0.4 mg/kg"}}, "note": "Where a name gives a salt, the structure may show the parent alone. Read-outs that look alike come from different tables or passages of the source."}
{"smiles": "Cc1c(OCC2OCC(C)(C)CO2)ccnc1C[S+]([O-])c1nc2ccccc2[nH]1", "note": "(centres unmarked) [Example 1, 2-(((4-((5,5-dimethyl-1,3-dioxan-2-yl)methoxy)-3-methylpyridin-2-yl)methyl)sulfinyl)-1H-benzimidazole sodium salt]", "values": [{"measurement": "inhibition in vivo at 0.4 mg/kg", "setting": "[1]", "value": 76, "unit": "%"}, {"measurement": "inhibition in vivo at 0.8 mg/kg", "setting": "[1]", "value": 90, "unit": "%"}, {"measurement": "inhibition in vivo at 0.4 mg/kg", "setting": "[2]", "value": 94, "unit": "%"}, {"measurement": "inhibition in vivo at 0.8 mg/kg", "setting": "[2]", "value": 100, "unit": "%"}]}
{"smiles": "Cc1c(OCC2OCC3(CC3)CO2)ccnc1C[S+]([O-])c1nc2ccccc2[nH]1", "note": "(centres unmarked) [Example 2, 2-(((4-(5,7-dioxaspiro[2.5]oct-6-ylmethoxy)-3-methylpyridin-2-yl)methyl)sulfinyl)-1H-benzimidazole sodium salt]", "values": [{"measurement": "inhibition in vivo at 0.2 mg/kg", "setting": "[1]", "value": 52, "unit": "%"}, {"measurement": "inhibition in vivo at 0.4 mg/kg", "setting": "[1]", "value": 90, "unit": "%"}, {"measurement": "inhibition in vivo at 0.8 mg/kg", "setting": "[1]", "value": 96, "unit": "%"}, {"measurement": "inhibition in vivo at 0.2 mg/kg", "setting": "[2]", "value": 83, "unit": "%"}, {"measurement": "inhibition in vivo at 0.4 mg/kg", "setting": "[2]", "value": 100, "unit": "%"}, {"measurement": "inhibition in vivo at 0.8 mg/kg", "setting": "[2]", "value": 100, "unit": "%"}]}
{"smiles": "CCCC1(CCOc2ccnc(C[S+]([O-])c3nc4ccccc4[nH]3)c2C)OCCO1", "note": "(centres unmarked) [Example 3, 2-(((3-methyl-4-(2-(2-propyl-1,3-dioxolan-2-yl)ethoxy)pyridin-2-yl)methyl)sulfinyl)-1H-benzimidazole sodium salt]", "values": [{"measurement": "inhibition in vivo at 0.8 mg/kg", "setting": "[1]", "value": 86, "unit": "%"}, {"measurement": "inhibition in vivo at 0.8 mg/kg", "setting": "[2]", "value": 100, "unit": "%"}]}
{"smiles": "CCC1(CCOc2ccnc(C[S+]([O-])c3nc4ccccc4[nH]3)c2C)OCC2(CO1)OCCO2", "note": "(centres unmarked) [Example 4, 2-(((4-(2-(8-ethyl-1,4,7,9-tetraoxaspiro[4.5]dec-8-yl)ethoxy)-3-methylpyridin-2-yl)methyl)sulfinyl)-1H-benzimidazole sodium salt]", "values": [{"measurement": "inhibition in vivo at 0.8 mg/kg", "setting": "[1]", "value": 93, "unit": "%"}, {"measurement": "inhibition in vivo at 0.8 mg/kg", "setting": "[2]", "value": 100, "unit": "%"}]}
{"smiles": "Cc1c(OCC2(C)OCC3(CO2)OCCO3)ccnc1C[S+]([O-])c1nc2ccccc2[nH]1", "note": "(centres unmarked) [Example 5, 2-(((3-methyl-4-((8-methyl-1,4,7,9-tetraoxaspiro[4.5]dec-8-yl)methoxy)pyridin-2-yl)methyl)sulfinyl)-1H-benzimidazole sodium salt]", "values": [{"measurement": "inhibition in vivo at 0.4 mg/kg", "setting": "[1]", "value": 61, "unit": "%"}, {"measurement": "inhibition in vivo at 0.8 mg/kg", "setting": "[1]", "value": 89, "unit": "%"}, {"measurement": "inhibition in vivo at 0.4 mg/kg", "setting": "[2]", "value": 54, "unit": "%"}, {"measurement": "inhibition in vivo at 0.8 mg/kg", "setting": "[2]", "value": 100, "unit": "%"}]}
{"smiles": "COC1OCC(COc2ccnc(C[S+]([O-])c3nc4ccccc4[nH]3)c2C)CO1", "note": "(centres unmarked) [Example 6, 2-(((4-((2-methoxy-1,3-dioxan-5-yl)methoxy)-3-methylpyridin-2-yl)methyl)sulfinyl)-1H-benzimidazole sodium salt]", "values": [{"measurement": "inhibition in vivo at 0.8 mg/kg", "setting": "[1]", "value": 89, "unit": "%"}, {"measurement": "inhibition in vivo at 0.8 mg/kg", "setting": "[2]", "value": 100, "unit": "%"}]}
{"smiles": "Cc1c(OCC2COC(CF)(CF)OC2)ccnc1C[S+]([O-])c1nc2ccccc2[nH]1", "note": "(centres unmarked) [Example 7, 2-(((4-((2,2-bis(fluoromethyl)-1,3-dioxan-5-yl)methoxy)-3-methylpyridin-2-yl)methyl)sulfinyl)-1H-benzimidazole sodium salt]", "values": [{"measurement": "inhibition in vivo at 0.8 mg/kg", "setting": "[1]", "value": 90, "unit": "%"}, {"measurement": "inhibition in vivo at 0.8 mg/kg", "setting": "[2]", "value": 99, "unit": "%"}]}
{"smiles": "CCCC1(CCOc2ccnc(C[S+]([O-])c3nc4ccccc4[nH]3)c2C)OCCCO1", "note": "(centres unmarked) [Example 8, 2-(((3-methyl-4-(2-(2-propyl-1,3-dioxan-2-yl)ethoxy)pyridin-2-yl)methyl)sulfinyl)-1H-benzimidazole sodium salt]", "values": [{"measurement": "inhibition in vivo at 0.8 mg/kg", "setting": "[1]", "value": 88, "unit": "%"}, {"measurement": "inhibition in vivo at 0.8 mg/kg", "setting": "[2]", "value": 100, "unit": "%"}]}
{"smiles": "Cc1c(OC2COC3(CCC3)OC2)ccnc1C[S+]([O-])c1nc2ccccc2[nH]1", "note": "(centres unmarked) [Example 9, 2-(((4-(5,9-dioxaspiro[3.5]non-7-yloxy)-3-methylpyridin-2-yl)methyl)sulfinyl)-1H-benzimidazole sodium salt]", "values": [{"measurement": "inhibition in vivo at 0.8 mg/kg", "setting": "[1]", "value": 90, "unit": "%"}, {"measurement": "inhibition in vivo at 0.8 mg/kg", "setting": "[2]", "value": 100, "unit": "%"}]}
{"smiles": "Cc1c(OCC2COC3(CCOCC3)OC2)ccnc1C[S+]([O-])c1nc2ccccc2[nH]1", "note": "(centres unmarked) [Example 10, 2-(((3-methyl-4-(1,5,9-trioxaspiro[5.5]undec-3-ylmethoxy)pyridin-2-yl)methyl)sulfinyl)-1H-benzimidazole sodium salt]", "values": [{"measurement": "inhibition in vivo at 0.8 mg/kg", "setting": "[1]", "value": 90, "unit": "%"}, {"measurement": "inhibition in vivo at 1.6 mg/kg", "setting": "[1]", "value": 87, "unit": "%"}, {"measurement": "inhibition in vivo at 0.8 mg/kg", "setting": "[2]", "value": 98, "unit": "%"}, {"measurement": "inhibition in vivo at 1.6 mg/kg", "setting": "[2]", "value": 100, "unit": "%"}]}
{"smiles": "Cc1cnc(C[S+]([O-])c2nc3ccccc3[nH]2)c(C)c1OCC1COC(C)(C)OC1", "note": "(centres unmarked) [Example 11, 2-(((4-((2,2-dimethyl-1,3-dioxan-5-yl)methoxy)-3,5-dimethylpyridin-2-yl)methyl)sulfinyl)-1H-benzimidazole sodium salt]", "values": [{"measurement": "inhibition in vivo at 0.4 mg/kg", "setting": "[1]", "value": 65, "unit": "%"}, {"measurement": "inhibition in vivo at 0.8 mg/kg", "setting": "[1]", "value": 89, "unit": "%"}, {"measurement": "inhibition in vivo at 0.4 mg/kg", "setting": "[2]", "value": 79, "unit": "%"}, {"measurement": "inhibition in vivo at 0.8 mg/kg", "setting": "[2]", "value": 100, "unit": "%"}]}
{"smiles": "Cc1c(OCC2COC(C)(C)OC2)ccnc1C[S+]([O-])c1nc2ccccc2[nH]1", "note": "(centres unmarked) [Example 12, 2-(((4-((2,2-dimethyl-1,3-dioxan-5-yl)methoxy)-3-methylpyridin-2-yl)methyl)sulfinyl)-1H-benzimidazole sodium salt]", "values": [{"measurement": "inhibition in vivo at 0.8 mg/kg", "setting": "[1]", "value": 86, "unit": "%"}, {"measurement": "inhibition in vivo at 0.8 mg/kg", "setting": "[2]", "value": 100, "unit": "%"}]}
{"smiles": "Cc1cnc(C[S+]([O-])c2nc3ccccc3[nH]2)c(C)c1OCC1COC2(CCC2)OC1", "note": "(centres unmarked) [Example 13, 2-(((4-(5,9-dioxaspiro[3.5]non-7-ylmethoxy)-3,5-dimethylpyridin-2-yl)methyl)sulfinyl)-1H-benzimidazole sodium salt]", "values": [{"measurement": "inhibition in vivo at 0.8 mg/kg", "setting": "[1]", "value": 74, "unit": "%"}, {"measurement": "inhibition in vivo at 0.8 mg/kg", "setting": "[2]", "value": 100, "unit": "%"}]}
{"smiles": "Cc1cnc(C[S+]([O-])c2nc3ccccc3[n-]2)c(C)c1OCC1COC(C)(C)OC1.[Na+]", "note": "(stereo not drawn) [Example 19, Sodium salt of an optical isomer (long in retention time) of 2-(((4-((2,2-dimethyl-1,3-dioxan-5-yl)methoxy)-3,5-dimethylpyridin-2-yl)methyl)sulfinyl)-1H-benzimidazole]", "values": [{"measurement": "inhibition in vivo at 0.8 mg/kg", "setting": "i.d., dose 0.8 mg/kg i.d., first day, 1 h 40 min to 2 h after administration, histamine i.v., read-out: Inhibitory effect against gastric acid secretion (%)", "value": 82, "unit": "%"}, {"measurement": "Inhibitory effect against gastric acid secretion (%)", "setting": "[3]", "value": 13, "unit": "%"}, {"measurement": "Persistency of inhibitory effect against gastric acid secretion (%)", "setting": "[4]", "value": "−4", "unit": "%"}, {"measurement": "Persistency of inhibitory effect against gastric acid secretion (%)", "setting": "dose 0.8 mg/kg i.d., second day, 24 hours after administration, histamine i.v.", "value": 56, "unit": "%"}]}
{"smiles": "Cc1cnc(C[S+]([O-])c2nc3ccccc3[n-]2)c(C)c1OCC1COC(C)(C)OC1.[Na+]", "note": "(stereo not drawn) [Example 20, Sodium salt of an optical isomer (short in retention time) of 2-(((4-(2,2-dimethyl-1,3-dioxan-5-yl)methoxy-3,5-dimethylpyridin-2-yl)methyl)sulfinyl)-1H-benzimidazole]", "values": [{"measurement": "inhibition in vivo at 0.1 mg/kg", "setting": "i.d., 24 h, second day, 24 hours after administration, histamine i.v., read-out: Persistency of inhibitory effect against gastric acid secretion (%)", "value": 6, "unit": "%"}, {"measurement": "inhibition in vivo at 0.2 mg/kg", "setting": "i.d., 24 h, dose 0.2 mg/kg i.d., second day, 24 hours after administration, histamine i.v., read-out: Persistency of inhibitory effect against gastric acid secretion (%)", "value": 46, "unit": "%"}, {"measurement": "inhibition in vivo at 0.1 mg/kg", "setting": "i.d., first day, 1 h 40 min to 2 h after administration, histamine i.v., read-out: Inhibitory effect against gastric acid secretion (%)", "value": 8, "unit": "%"}, {"measurement": "inhibition in vivo at 0.2 mg/kg", "setting": "i.d., dose 0.2 mg/kg i.d., first day, 1 h 40 min to 2 h after administration, histamine i.v., read-out: Inhibitory effect against gastric acid secretion (%)", "value": 65, "unit": "%"}, {"measurement": "Inhibitory effect against gastric acid secretion (%)", "setting": "[3]", "value": 97, "unit": "%"}, {"measurement": "Persistency of inhibitory effect against gastric acid secretion (%)", "setting": "[4]", "value": 77, "unit": "%"}, {"measurement": "Inhibitory effect against gastric acid secretion (%)", "setting": "dose 0.8 mg/kg i.d., first day, 1 h 40 min to 2 h after administration, histamine i.v., 0.8 mg/kg", "value": 100, "unit": "%"}, {"measurement": "Persistency of inhibitory effect against gastric acid secretion (%)", "setting": "dose 0.8 mg/kg i.d., second day, 24 hours after administration, histamine i.v., 0.8 mg/kg", "value": 89, "unit": "%"}]}
{"smiles": "Cc1c(OCC2COC3(CCCC3)OC2)ccnc1C[S+]([O-])c1nc2ccccc2[nH]1", "note": "(centres unmarked) [Example 21, 2-(((4-(6,10-dioxaspiro[4.5]dec-8-ylmethoxy)-3-methylpyridin-2-yl)methyl)sulfinyl)-1H-benzimidazole sodium salt]", "values": [{"measurement": "inhibition in vivo at 1.6 mg/kg", "setting": "[1]", "value": 94, "unit": "%"}, {"measurement": "inhibition in vivo at 1.6 mg/kg", "setting": "[2]", "value": 100, "unit": "%"}]}
{"smiles": "Cc1c(OCC2COC3(CCC3)OC2)ccnc1C[S+]([O-])c1nc2ccccc2[nH]1", "note": "(centres unmarked) [Example 22, 2-(((4-(5,9-dioxaspiro[3.5]non-7-ylmethoxy)-3-methylpyridin-2-yl)methyl)sulfinyl)-1H-benzimidazole sodium salt]", "values": [{"measurement": "inhibition in vivo at 1.6 mg/kg", "setting": "[1]", "value": 97, "unit": "%"}, {"measurement": "inhibition in vivo at 1.6 mg/kg", "setting": "[2]", "value": 100, "unit": "%"}]}
{"smiles": "CCC1(CC)OCC(COc2ccnc(C[S+]([O-])c3nc4ccccc4[nH]3)c2C)CO1", "note": "(centres unmarked) [Example 23, 2-(((4-((2,2-diethyl-1,3-dioxan-5-yl)methoxy)-3-methylpyridin-2-yl)methyl)sulfinyl)-1H-benzimidazole sodium salt]", "values": [{"measurement": "inhibition in vivo at 1.6 mg/kg", "setting": "[1]", "value": 92, "unit": "%"}, {"measurement": "inhibition in vivo at 1.6 mg/kg", "setting": "[2]", "value": 100, "unit": "%"}]}
